Reference: PubChem BioAssay AID1963984 (Molecular Pharmacology Branch, DTP, NCI, 2024)

System: 233499-124-R-J3-PDC spheroids with HUVEC/MSC, viability
Assay: Anticancer human tumor 233499-124-R-J3-PDC patient-derived colon adenocarcinoma cell line growth inhibition [PI3K]
Settings: for IC50: curve of first compound; for viability, T/C: stronger effect = lower value
Outline: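 Targeted small molecules plus PI3K inhibitors, half-log dose series from Cmax (default top 10 microM), were applied to heterotypic spheroids of cancer cells with HUVEC and MSCs. Viability indicated growth inhibition.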
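Also: spheroids exposed to agents for seven days before readout.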
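For viability, T/C in this document: percent viability relative to DMSO vehicle control taken as 100%.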

CC1(C)CCC(Nc2ncc(C(F)(F)F)c(-c3c[nH]c4c(P(C)(C)=O)c(C#N)ccc34)n2)CN1 (configuration not stated) + CC(Nc1ccc2c(c1)OCCn1cc(N3C(=O)OCC3C(F)F)nc1-2)C(N)=O
IC50 (second compound 0.00316 µM): 73.8 nM
IC50 (second compound 0.01 µM): < 31.6 nM
IC50 (second compound 0.0316 µM): 94 nM
IC50 (second compound 0.1 µM): < 31.6 nM
IC50 (second compound 0.316 µM): 84.3 nM
IC50 (second compound 1 µM): < 31.6 nM
viability, T/C (second compound 0.00316 µM, first compound 0.0316 µM): 55.3%
viability, T/C (second compound 0.00316 µM, first compound 0.1 µM): 58.7%
viability, T/C (second compound 0.00316 µM, first compound 0.316 µM): 24.6%
viability, T/C (second compound 0.00316 µM, first compound 1 µM): 19.3%
viability, T/C (second compound 0.00316 µM, first compound 3.16 µM): 34.4%
viability, T/C (second compound 0.00316 µM, first compound 10 µM): 1.55%
viability, T/C (second compound 0.01 µM, first compound 0.0316 µM): 39.4%
viability, T/C (second compound 0.01 µM, first compound 0.1 µM): 42.9%
viability, T/C (second compound 0.01 µM, first compound 0.316 µM): 34.9%
viability, T/C (second compound 0.01 µM, first compound 1 µM): 22.1%
viability, T/C (second compound 0.01 µM, first compound 3.16 µM): 22.7%
viability, T/C (second compound 0.01 µM, first compound 10 µM): 1.45%
viability, T/C (second compound 0.0316 µM, first compound 0.0316 µM): 79.9%
viability, T/C (second compound 0.0316 µM, first compound 0.1 µM): 44.4%
viability, T/C (second compound 0.0316 µM, first compound 0.316 µM): 31.4%
viability, T/C (second compound 0.0316 µM, first compound 1 µM): 17%
viability, T/C (second compound 0.0316 µM, first compound 3.16 µM): 17.1%
viability, T/C (second compound 0.0316 µM, first compound 10 µM): 1.3%
viability, T/C (second compound 0.1 µM, first compound 0.0316 µM): 36.5%
viability, T/C (second compound 0.1 µM, first compound 0.1 µM): 40.7%
viability, T/C (second compound 0.1 µM, first compound 0.316 µM): 24.5%
viability, T/C (second compound 0.1 µM, first compound 1 µM): 13.8%
viability, T/C (second compound 0.1 µM, first compound 3.16 µM): 18.9%
viability, T/C (second compound 0.1 µM, first compound 10 µM): 4.74%
viability, T/C (second compound 0.316 µM, first compound 0.0316 µM): 67.4%
viability, T/C (second compound 0.316 µM, first compound 0.1 µM): 43%
viability, T/C (second compound 0.316 µM, first compound 0.316 µM): 34.3%
viability, T/C (second compound 0.316 µM, first compound 1 µM): 19.4%
viability, T/C (second compound 0.316 µM, first compound 3.16 µM): 20.7%
viability, T/C (second compound 0.316 µM, first compound 10 µM): 2.38%
viability, T/C (second compound 1 µM, first compound 0.0316 µM): 49%
viability, T/C (second compound 1 µM, first compound 0.1 µM): 29.3%
viability, T/C (second compound 1 µM, first compound 0.316 µM): 28.6%
viability, T/C (second compound 1 µM, first compound 1 µM): 18.6%
viability, T/C (second compound 1 µM, first compound 3.16 µM): 25.9%
viability, T/C (second compound 1 µM, first compound 10 µM): 0.86%
